The target of assay [1] is Bromodomain and PHD finger-containing protein 3 (Homo sapiens, UniProt Q9ULD4). As to the kind of experiment: Inhibition of BRPF3 (unknown origin) incubated for 60 mins by alphascreen competitive assay. In general terms: Bead proximity is the source of the signal in Alpha formats.
Assay [2] deals with T1, Peregrin (Homo sapiens) (UniProt P55201).
T1 sequence (whole entry): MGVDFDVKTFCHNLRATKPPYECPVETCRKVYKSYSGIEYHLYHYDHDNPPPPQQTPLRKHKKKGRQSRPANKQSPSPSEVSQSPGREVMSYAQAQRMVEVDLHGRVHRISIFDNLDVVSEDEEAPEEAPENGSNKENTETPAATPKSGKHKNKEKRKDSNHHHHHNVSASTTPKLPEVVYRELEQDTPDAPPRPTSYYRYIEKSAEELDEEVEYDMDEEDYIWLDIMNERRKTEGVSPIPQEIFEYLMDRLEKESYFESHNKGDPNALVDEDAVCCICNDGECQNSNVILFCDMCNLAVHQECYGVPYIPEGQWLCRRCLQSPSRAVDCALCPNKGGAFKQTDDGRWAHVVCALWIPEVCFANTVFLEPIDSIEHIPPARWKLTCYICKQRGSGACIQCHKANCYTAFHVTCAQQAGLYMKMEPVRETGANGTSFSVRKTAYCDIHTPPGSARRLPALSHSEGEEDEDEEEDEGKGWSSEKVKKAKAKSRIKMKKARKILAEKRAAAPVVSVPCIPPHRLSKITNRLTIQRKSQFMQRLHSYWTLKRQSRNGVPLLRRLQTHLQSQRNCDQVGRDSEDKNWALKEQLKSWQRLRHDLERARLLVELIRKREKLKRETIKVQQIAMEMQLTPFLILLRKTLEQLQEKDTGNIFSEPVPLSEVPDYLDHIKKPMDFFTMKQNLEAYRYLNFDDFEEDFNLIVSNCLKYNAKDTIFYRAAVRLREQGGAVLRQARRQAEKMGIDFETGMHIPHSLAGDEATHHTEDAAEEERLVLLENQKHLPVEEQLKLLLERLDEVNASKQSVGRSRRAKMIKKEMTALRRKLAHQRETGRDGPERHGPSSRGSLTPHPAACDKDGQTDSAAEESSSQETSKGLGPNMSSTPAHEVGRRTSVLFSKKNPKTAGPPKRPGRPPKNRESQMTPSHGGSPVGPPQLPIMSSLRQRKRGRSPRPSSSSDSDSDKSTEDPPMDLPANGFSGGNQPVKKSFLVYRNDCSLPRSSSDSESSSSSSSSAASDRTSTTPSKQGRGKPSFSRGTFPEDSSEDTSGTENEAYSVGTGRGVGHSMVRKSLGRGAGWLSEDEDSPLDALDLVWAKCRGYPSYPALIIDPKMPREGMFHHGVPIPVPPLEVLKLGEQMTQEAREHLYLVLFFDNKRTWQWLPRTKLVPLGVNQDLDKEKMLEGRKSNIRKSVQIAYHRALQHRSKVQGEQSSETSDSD
As to the kind of experiment: Binding affinity to […] (unknown origin) assessed as change in entropy at 17 uM by Isothermal titration calorimetry. (In general: Isothermal titration calorimetry measures the heat released or taken up as one component is titrated into another.)

The target of assay [3] is Beta-1 adrenergic receptor (Homo sapiens) (UniProt P08588). As to the kind of experiment: Inhibition of Beta1 (unknown origin) at 10 uM relative to control.
Beta-1 adrenergic receptor (Homo sapiens), sequence (P08588 whole entry, looked up, the tested form may be a part): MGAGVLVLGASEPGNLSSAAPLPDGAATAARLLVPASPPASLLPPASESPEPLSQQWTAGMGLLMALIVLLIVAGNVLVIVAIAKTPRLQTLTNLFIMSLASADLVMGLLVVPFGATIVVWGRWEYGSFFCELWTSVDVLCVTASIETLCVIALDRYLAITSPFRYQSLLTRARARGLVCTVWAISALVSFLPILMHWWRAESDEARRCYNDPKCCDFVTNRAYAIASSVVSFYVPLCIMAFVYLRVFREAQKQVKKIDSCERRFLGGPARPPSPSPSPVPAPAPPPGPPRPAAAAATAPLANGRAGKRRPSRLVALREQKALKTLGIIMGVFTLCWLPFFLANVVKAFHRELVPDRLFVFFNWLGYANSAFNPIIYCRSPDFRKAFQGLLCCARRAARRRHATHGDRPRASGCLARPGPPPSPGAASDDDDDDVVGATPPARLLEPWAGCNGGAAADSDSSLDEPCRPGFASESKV
Assay [4] deals with ATPase family AAA domain-containing protein 2B (Homo sapiens) (UniProt Q9ULI0). To be noted: dose 10.0 µM.
The target of assay [5] is Bromodomain-containing protein 2 (Homo sapiens) (UniProt P25440). To be noted: dose 10.0 µM.
Bromodomain-containing protein 2 (Homo sapiens), sequence (P25440 whole entry, looked up): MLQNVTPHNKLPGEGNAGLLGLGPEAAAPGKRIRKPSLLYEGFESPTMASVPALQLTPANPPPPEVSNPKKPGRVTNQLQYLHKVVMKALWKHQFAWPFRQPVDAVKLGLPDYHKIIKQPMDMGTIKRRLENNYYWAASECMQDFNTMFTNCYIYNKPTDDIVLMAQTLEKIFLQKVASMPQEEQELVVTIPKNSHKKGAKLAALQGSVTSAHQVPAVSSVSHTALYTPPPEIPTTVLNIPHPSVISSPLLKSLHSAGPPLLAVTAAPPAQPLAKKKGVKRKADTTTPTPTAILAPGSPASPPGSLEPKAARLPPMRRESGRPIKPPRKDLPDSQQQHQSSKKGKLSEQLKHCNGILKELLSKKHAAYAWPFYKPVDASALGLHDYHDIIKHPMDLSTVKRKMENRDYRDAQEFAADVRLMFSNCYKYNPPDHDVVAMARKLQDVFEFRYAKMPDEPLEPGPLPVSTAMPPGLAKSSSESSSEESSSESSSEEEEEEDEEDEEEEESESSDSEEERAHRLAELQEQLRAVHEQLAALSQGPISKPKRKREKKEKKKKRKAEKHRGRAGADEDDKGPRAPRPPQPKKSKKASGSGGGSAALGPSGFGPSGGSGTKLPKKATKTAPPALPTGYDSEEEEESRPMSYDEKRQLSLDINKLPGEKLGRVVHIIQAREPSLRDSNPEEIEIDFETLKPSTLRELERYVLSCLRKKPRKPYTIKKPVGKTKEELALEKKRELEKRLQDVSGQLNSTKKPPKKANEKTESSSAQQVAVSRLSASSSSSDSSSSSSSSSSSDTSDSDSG
Assay [6] concerns the target T1, Peregrin (Homo sapiens). As to the kind of experiment: Binding affinity to […] (unknown origin) assessed as change in gibbs free energy at 17 uM by Isothermal titration calorimetry.
In assay [7] the target is Transcription initiation factor TFIID subunit 1 (Homo sapiens) (UniProt P21675). To be noted: dose 10.0 µM.
Assay [8] addresses Histone acetyltransferase KAT2B (Homo sapiens) (UniProt Q92831). To be noted: dose 10.0 µM.
Assay [9] addresses Bromodomain-containing protein 4 (Homo sapiens) (UniProt O60885). As to the kind of experiment: Binding affinity to BRD4 BD1 (unknown origin) assessed as change in entropy at 14 uM by Isothermal titration calorimetry.
The target of assay [10] is T2, Bromodomain-containing protein 1 (Homo sapiens) (UniProt O95696).
T2 sequence (whole entry): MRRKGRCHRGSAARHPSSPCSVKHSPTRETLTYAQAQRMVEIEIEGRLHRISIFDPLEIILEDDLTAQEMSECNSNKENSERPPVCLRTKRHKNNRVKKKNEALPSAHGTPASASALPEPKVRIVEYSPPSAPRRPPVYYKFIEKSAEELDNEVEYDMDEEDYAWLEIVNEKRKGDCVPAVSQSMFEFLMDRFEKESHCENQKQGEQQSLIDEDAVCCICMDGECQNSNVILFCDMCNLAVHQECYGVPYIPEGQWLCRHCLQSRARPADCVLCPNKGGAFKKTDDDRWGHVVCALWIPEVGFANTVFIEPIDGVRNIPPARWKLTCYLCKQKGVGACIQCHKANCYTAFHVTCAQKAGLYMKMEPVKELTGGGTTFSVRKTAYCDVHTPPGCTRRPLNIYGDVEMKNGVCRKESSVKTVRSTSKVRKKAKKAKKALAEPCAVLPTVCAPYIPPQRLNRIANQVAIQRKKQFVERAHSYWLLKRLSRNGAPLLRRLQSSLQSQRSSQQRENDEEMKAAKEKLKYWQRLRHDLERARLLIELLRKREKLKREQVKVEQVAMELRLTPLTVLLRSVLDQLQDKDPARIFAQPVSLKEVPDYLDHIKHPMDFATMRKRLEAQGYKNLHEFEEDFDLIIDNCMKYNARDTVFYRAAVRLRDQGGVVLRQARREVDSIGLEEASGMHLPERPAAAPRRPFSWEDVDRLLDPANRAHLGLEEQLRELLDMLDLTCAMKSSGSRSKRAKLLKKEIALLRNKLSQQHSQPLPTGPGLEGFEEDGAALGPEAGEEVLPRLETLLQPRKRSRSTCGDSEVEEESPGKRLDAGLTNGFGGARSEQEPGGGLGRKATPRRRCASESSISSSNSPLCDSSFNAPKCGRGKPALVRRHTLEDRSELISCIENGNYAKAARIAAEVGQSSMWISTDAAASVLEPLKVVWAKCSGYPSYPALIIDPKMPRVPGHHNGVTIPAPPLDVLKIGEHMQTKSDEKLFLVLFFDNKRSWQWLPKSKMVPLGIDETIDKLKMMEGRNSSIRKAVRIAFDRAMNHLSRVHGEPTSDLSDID
As to the kind of experiment: Binding affinity to BRPF2 (unknown origin) assessed as change in entropy TdeltaS at 12 uM by Isothermal titration calorimetry.

Assay [11] concerns the target Bromodomain-containing protein 4 (Homo sapiens) (UniProt O60885). Description: Binding affinity to BRD4 BD1 (unknown origin) assessed as change in gibbs free energy at 14 uM by Isothermal titration calorimetry.
The target in assay [12] is Transcription intermediary factor 1-alpha (Homo sapiens, UniProt O15164).
Transcription intermediary factor 1-alpha, sequence (O15164 whole entry): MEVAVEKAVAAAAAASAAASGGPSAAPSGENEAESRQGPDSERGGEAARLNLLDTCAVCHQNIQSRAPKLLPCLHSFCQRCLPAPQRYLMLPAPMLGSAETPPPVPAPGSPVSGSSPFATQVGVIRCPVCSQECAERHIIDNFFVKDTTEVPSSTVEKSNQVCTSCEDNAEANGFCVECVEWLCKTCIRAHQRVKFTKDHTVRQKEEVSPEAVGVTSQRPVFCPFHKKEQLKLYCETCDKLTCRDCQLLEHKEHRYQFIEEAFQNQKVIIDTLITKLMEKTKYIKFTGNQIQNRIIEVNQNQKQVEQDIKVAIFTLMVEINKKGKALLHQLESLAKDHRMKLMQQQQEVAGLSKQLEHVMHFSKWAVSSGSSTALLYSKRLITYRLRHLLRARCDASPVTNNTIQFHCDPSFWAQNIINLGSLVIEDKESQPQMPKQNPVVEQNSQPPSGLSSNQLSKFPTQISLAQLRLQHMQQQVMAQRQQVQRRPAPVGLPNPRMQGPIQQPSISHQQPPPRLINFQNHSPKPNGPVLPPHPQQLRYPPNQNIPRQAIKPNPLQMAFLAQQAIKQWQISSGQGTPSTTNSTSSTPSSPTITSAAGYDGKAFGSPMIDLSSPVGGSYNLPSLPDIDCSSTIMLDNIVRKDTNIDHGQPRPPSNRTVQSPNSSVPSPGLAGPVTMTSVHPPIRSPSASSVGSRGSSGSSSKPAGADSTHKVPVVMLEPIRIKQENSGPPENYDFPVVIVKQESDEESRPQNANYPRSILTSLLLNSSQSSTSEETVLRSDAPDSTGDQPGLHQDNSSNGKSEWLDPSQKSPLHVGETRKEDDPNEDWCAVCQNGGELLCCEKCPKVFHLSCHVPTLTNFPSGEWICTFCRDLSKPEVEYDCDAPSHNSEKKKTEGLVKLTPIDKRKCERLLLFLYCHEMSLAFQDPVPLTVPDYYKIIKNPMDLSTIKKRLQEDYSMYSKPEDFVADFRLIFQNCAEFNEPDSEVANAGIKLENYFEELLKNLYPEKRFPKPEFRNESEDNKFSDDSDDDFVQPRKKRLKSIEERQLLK
Assay [13] addresses CREB-binding protein (Homo sapiens) (UniProt Q92793). To be noted: dose 10.0 µM.

pIC50: −log10 of the molar value.

Histone acetyltransferase KAT2B (Homo sapiens), sequence (Q92831 whole entry, looked up): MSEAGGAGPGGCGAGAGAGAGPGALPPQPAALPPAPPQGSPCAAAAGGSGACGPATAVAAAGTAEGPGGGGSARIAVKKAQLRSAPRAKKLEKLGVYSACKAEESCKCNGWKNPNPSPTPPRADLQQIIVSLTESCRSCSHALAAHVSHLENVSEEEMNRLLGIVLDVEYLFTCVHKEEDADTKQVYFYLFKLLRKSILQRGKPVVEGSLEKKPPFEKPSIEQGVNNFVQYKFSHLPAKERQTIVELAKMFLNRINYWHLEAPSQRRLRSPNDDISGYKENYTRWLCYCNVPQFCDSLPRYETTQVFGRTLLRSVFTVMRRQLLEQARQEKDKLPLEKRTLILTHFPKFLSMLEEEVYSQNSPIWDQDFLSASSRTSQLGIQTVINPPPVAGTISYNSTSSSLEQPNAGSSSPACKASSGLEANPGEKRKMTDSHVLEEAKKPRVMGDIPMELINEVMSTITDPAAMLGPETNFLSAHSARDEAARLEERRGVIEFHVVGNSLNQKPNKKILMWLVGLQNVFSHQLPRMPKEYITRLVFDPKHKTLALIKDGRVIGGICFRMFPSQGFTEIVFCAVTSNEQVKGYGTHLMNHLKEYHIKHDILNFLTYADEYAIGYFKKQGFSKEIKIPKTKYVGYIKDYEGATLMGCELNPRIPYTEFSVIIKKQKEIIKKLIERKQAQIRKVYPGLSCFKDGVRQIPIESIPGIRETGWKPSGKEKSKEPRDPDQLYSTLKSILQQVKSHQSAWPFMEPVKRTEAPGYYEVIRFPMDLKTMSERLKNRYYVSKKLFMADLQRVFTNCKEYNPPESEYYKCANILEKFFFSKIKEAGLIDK
Bromodomain and PHD finger-containing protein 3, sequence (Q9ULD4 whole entry): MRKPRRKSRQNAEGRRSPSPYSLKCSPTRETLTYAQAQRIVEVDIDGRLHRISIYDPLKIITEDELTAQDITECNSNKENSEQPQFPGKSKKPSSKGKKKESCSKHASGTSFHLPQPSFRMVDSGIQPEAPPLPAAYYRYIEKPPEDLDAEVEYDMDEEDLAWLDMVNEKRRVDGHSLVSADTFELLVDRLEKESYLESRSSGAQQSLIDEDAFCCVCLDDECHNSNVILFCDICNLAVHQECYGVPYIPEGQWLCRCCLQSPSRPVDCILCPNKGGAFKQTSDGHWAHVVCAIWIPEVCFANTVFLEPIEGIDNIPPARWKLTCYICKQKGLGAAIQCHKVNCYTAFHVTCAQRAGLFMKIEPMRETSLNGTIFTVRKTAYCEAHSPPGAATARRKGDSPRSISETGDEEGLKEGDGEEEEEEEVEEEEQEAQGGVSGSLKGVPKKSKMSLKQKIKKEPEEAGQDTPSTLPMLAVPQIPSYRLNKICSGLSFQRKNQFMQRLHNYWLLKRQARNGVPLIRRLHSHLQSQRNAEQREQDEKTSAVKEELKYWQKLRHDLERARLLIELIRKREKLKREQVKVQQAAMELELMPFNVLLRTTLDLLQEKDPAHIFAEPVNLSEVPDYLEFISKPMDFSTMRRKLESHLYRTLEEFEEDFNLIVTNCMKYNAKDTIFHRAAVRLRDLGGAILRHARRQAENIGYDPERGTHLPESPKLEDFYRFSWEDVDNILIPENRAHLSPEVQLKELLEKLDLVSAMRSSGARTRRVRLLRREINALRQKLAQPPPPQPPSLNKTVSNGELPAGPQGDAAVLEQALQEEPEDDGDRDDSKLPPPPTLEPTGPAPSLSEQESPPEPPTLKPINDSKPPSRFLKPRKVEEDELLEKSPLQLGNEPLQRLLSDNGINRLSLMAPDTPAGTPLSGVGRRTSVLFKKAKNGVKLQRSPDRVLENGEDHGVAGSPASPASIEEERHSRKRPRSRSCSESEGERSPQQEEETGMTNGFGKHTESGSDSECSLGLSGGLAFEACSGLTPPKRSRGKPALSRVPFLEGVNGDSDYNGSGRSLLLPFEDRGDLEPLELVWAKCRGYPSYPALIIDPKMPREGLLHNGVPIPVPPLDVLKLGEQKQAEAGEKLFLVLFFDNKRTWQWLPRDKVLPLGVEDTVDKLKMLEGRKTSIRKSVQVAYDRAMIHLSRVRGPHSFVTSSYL

The inhibition is how much of the control response was suppressed. High values mean a response far below the control, low ones a response near the control. One may read the ΔTm as the shift of the melting midpoint relative to a reference. By pIC50 is commonly meant the negative decadic logarithm of the IC50, by convention in mol/L. Read a low pIC50 as a high IC50. Regarding `COc1cc2c(cc1NS(=O)(=O)c1ccc(Br)cc1C)n(C)c(=O)n2C`, the IC50 result in [1] was “Not Active”. In addition, the figures for the deltaS in assay [2] and in assay [9] were -0.012 kcal/mol/K and 0.001 kcal/mol/K, respectively. Also, the inhibition in assay [3] was 11%. The ΔTm in assay [4] is -0.3 °C; in [5], 0.8 °C; in [7], 0.2 °C; in [8], 0.3 °C; in [13], 0.4 °C. Further, the deltaG in assay [6] is -9.24 kcal/mol; in assay [11], -7.13 kcal/mol. For the same molecule, the TdeltaS in assay [10] was -1.2 kcal/mol. The negative logarithm of the IC50 (pIC50) in assay [12] was less than 5.00.

Values taken from ChEMBL document CHEMBL5715956, “Selective Targeting of Bromodomains of the Bromodomain-PHD Fingers Family Impairs Osteoclast Differentiation” (ACS Chem Biol, 2017).
